Test results taken from patent US8592484B2, “Cosmetic composition containing calcium citrate and N-acylated aminoalcohol derivative to prevent dry skin and signs of cutaneous ageing” (Cognis IP Management GmbH, priority 2009, dated 2013).
Where “and” joins values, the source holds several entries; their conditions need not be identical. Equal entries are not always repeated. Marks after values point to notes of the source that are not given here.

How the values were obtained:
[1] = test system: human keratinocytes; test: Keratinocyte differentiation: involucrin by ELISA in primary culture of human keratinocytes; type: cell-based; details: for Involucrin (in % +/− SEM): 1 day incubation; for effect on the synthesis of the keratinocyte differentiation marker involucrin (in words): at the tested concentrations
Protocol: The purpose was to evaluate the potential of the products to stimulate the differentiation of human keratinocytes into corneocytes and therefore the formation of an optimal skin barrier. The products were tested on primary culture of human keratinocytes by measuring the quantity of synthesized involucrin through an ELISA method. Involucrin is a rod shaped protein of 68 kD released by keratinocytes of early spinous layers up to granular layer of human epidermis.
(§1) Human keratinocytes were seeded in growth medium (standard medium MCDB153 completed by Fetal Calf Serum at 2%). After 3-4 days of incubation at 37° C., CO2=5%, the growth medium was exchanged by standard medium MCDB153 without FCS (untreated control), and with a range of concentrations of products to be tested. After 1 day of incubation at 37° C., CO2=5%, the lack of cytotoxicity of the different product and doses tested was recorded using MTT test, and the level of involucrin was measured by an ELISA method.
The results are expressed in % versus control and presented as a mean+/−SEM (standard error of mean) of 2 or 3 assays (different donors of keratinocytes) in duplicate or triplicate.

[2] = test system: human keratinocytes; test: MTT test, viability of human keratinocytes; type: cell-based; details: at the concentrations tested for involucrin
Protocol: as §1

[3] = test system: ceramidase; test: Ceramidase inhibition, enzymatic extract of PMA-activated HL60 cells, [14C]-C16 ceramide substrate; type: biochemical; details: 1 hour at 37° C., mean of triplicate
Protocol: HL60 cells activated with Phorbol 12-myristate 13-acetate (PMA) at 5 nM were cultured in 175 cm^2 flasks. […] The supernatant obtained after centrifugation constituted the enzymatic extract.
The substrate [^14C]—C16 ceramide (N-palmitoyl-D-Sphingosine) was prepared as follows:
Evaporation of the organic phase and dissolution in distilled water. […] After evaporation and addition of Triton and cholate, the purified substrate was solubilised in distilled water.
The reaction mixture was incubated at 37° C. during 1 hour. The reaction mixture consisted of 5 μl MgCl2 (50 mM), 25 μl enzymatic extract or buffer; 7.5 μl substrate and 12.5 μl product to be tested. The products to be tested were prepared 4× concentrated in buffer at the tested pH and contained 1% of ethanol in final.
The quantification of enzymatic degradation of substrate was realized by measuring of radioactivity in heptane phase. […] The mixture was vortexed and centrifuged at 12 000 g 5 minutes. […] Results are expressed as the % of control.

Row | Compound | effect on the synthesis of the keratinocyte differentiation marker involucrin (in words) [1] | viability (MTT test) of the human keratinocytes [2] | Ceramidase activity in %/control ([3]; dose 5 μM) | Ceramidase activity in %/control ([3]; dose 50 μM) | Ceramidase activity in %/control ([3]; dose 500 μM) | other results
1 | [Ca+2].[Cl-].[Cl-] [CaCl2, Calcium chloride, reference compound] | significantly enhance | not significantly changed | – | – | – | Involucrin (in % +/− SEM) ([1]; CaCl2 dose 0.1 mM (Ca2+: 0.1 mM)): 21.9 +/− 5.3 ** %; Involucrin (in % +/− SEM) ([1]; dose 0.013 mM (Ca2+: 0.013 mM)): 3.4 +/− 4.6^ %; Involucrin (in % +/− SEM) ([1]; dose 0.026 mM (Ca2+: 0.026 mM)): −1.4 +/− 4.6 ^ %; Involucrin (in % +/− SEM) ([1]; dose 0.3 mM (Ca2+ 0.3 mM)): 84.4 +/− 1.9 *** %
2 | CCCCCCCC/C=C\CCCCCCCCNCCO [N-Oleyl-ethanolamine, reference compound] | – | – | 98% | 94% | 79% | –
3 | CCCCCCCC/C=C\CCCCCCCCNCC(O)CO (stereo not shown) [N-oleyl-(3 amino-1,2-propanediol)] | – | – | 81% | 78% | 71% | –
4 | O.O.O.O.O=C([O-])CC(O)(CC(=O)[O-])C(=O)[O-].O=C([O-])CC(O)(CC(=O)[O-])C(=O)[O-].[Ca+2].[Ca+2].[Ca+2] [Tricalcium dicitrate tetrahydrate, Tricalcium citrate tetrahydrate] | significantly enhance | not significantly changed | – | – | – | effect on keratinocytes differentiation compared with Calcium chloride ([1]; at equimolar doses of Ca2+, p<0.001 for Ca2+ 0.026 and 0.1 mM): more potent; Involucrin (in % +/− SEM) ([1]; dose 0.0044 mM, 0.00025 % w/v (Ca2+: 0.013 mM)): 0.5 +/− 2.6^ % and 0.5 +/− 2.6%; Involucrin (in % +/− SEM) ([1]; dose 0.0088 mM, 0.00050 % w/v (Ca2+: 0.026 mM)): 31.6 +/− 2.9 *** %; Involucrin (in % +/− SEM) ([1]; dose 0.033 mM (Ca2+: 0.1 mM)): 73.4 +/− 3.7 *** %; Involucrin (in % +/− SEM) ([1]; tricalcium dicitrate dose 0.1 mM (Ca2+ 0.3 mM)): 101.7 +/− 7.2 *** %
